Measurements from the NIST ThermoML archive (doi:10.1021/je800637t).

How the values were obtained:
[1] = mn = molality of the nth substance listed, in mol/kg; details: 100.8 kPa, Liquid, m2 = 0; for viscosity: Cone and plate viscometry; for electrical conductivity: Kyoto model CM-117 conductivity meter
[2] = refractive index (Na D-line) (dimensionless); mn = molality of the nth substance listed, in mol/kg; details: 100.8 kPa, Liquid, Standard Abbe refractometry, m2 = 0

O [water] + O=[N+]([O-])[O-].[K+]
Details | electrical conductivity, [1] [S/m] | refractive index, [2] | viscosity, [1] [mPa·s]
298.15 K | 0.000125 | 1.33277 | 0.891
313.15 K | 0.000164 | 1.3306 | 0.653

Details | mass density [kg/m3]
[1], 313.15 K, Vibrating tube method | 992.15
